Data taken from PMC5085761 (International Journal of Molecular Sciences, 2016).

How the values were obtained:
Type in all cases: in vitro ADME
[1] = biological target: T1, human P-gp (Homo sapiens, UniProt P08183); test: [14C]fluciclovine uptake by P-gp-expressing inside-out vesicles
T1 construct: purchased GenoMembrane Co., Ltd. (Kanagawa, Japan); host or cells: Sf9
Description: For ABC transporters, experimental kits containing Sf9-derived vesicles with high expression levels of human P-gp, MRP4, BCRP, and each ABC transporter (including buffer, ATP/AMP solution, and glutathione) were purchased from GenoMembrane Co., Ltd. (Kanagawa, Japan).
Vesicular transport assays were carried out according to the manufacturer’s protocol. […] The reaction was started by suspending 50 μg of vesicles (10 μL) in 40 μL of the reaction buffer. After incubation for an appropriate period of time, the reaction was stopped by the addition of ice-cold stop buffer (40 mM MOPS-Tris and 70 mM KCl; pH 7.0), after which the solution was filtered through a 0.45 μm HA filter (Millipore Corp., Billerica, MA, USA) using suction, and was washed twice in 5 mL of ice-cold stop buffer. The radioactivity of the filter was measured with a Tri-Carb 2910TR liquid scintillation counter (PerkinElmer) using Ultima Gold (PerkinElmer). The amount of tracer uptake was normalized to the membrane protein amount described in the product information sheets.

[2] = biological target: T2, OATP1B1 (Homo sapiens, UniProt Q9Y6L6); test: [14C]fluciclovine uptake by OATP1B1-expressing cells; details: OATP1B1 cells vs mock cells
T2 construct: host or cells: HEK293
T2 sequence (Q9Y6L6 1-691): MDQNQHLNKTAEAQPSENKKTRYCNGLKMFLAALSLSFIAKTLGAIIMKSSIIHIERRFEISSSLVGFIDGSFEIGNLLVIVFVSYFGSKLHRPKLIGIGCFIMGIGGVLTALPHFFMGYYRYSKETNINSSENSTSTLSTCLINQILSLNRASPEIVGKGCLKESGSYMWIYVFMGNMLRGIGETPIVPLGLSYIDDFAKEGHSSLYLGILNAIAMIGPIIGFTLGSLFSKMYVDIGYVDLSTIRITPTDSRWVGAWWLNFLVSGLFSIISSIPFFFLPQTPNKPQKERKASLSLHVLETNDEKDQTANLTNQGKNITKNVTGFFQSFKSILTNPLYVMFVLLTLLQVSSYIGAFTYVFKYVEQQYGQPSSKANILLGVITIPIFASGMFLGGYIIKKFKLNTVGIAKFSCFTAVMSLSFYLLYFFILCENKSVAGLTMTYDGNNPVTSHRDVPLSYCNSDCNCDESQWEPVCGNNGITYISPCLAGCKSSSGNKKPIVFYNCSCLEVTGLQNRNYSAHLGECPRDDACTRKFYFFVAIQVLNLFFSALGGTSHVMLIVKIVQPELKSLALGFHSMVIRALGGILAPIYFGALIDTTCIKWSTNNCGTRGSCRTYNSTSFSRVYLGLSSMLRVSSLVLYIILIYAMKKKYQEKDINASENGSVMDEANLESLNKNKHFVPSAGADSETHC
Description: (§1) For the SLC transporter experiments, Mock Flp-in-293 cells (Flp/mock), OAT1-expressing Flp-in-293 cells (Flp/OAT1), mock HEK293 cells (HEK/mock), and OATP1B3-expressing HEK293 cells (HEK/OATP1B3) were obtained from Kanazawa University (Ishikawa, Japan). Briefly, Flp-in-293 and HEK293 cells were transfected with the appropriate plasmid DNA and selected using antibiotics (hygromycin or G-418). All cell lines were cultured in DMEM (Life Technologies Japan) supplemented with 10% (v/v) fetal bovine serum (American Type Culture Collection) and antibiotics (100 U/mL penicillin and 100 μg/mL streptomycin (Life Technologies Japan) for mock cells, 0.2 mg/mL hygromycin for Flp/OAT1 cells, and 1.2 mg/mL G-418 (Roche Diagnostics K.K., Tokyo, Japan) for HEK/OATP1B3 cells) at 37 °C under an atmosphere containing 5% CO2. […]
(§2) The experiments were performed as described previously, with minor modifications. […] The cells were lysed in 0.3 mL of 0.1N NaOH at room temperature, after which the radioactivity of each aliquot was measured as described above. The protein concentration of the cell lysate was determined with a VersaMax microplate reader (Molecular Devices Japan K.K., Osaka, Japan) or SpectraMax i3x (Molecular Devices Japan K.K.; only for OATP1B1) using a BCA Protein Assay Kit (Thermo Fisher Scientific, Kanagawa, Japan). Tracer uptake was expressed as pmol/mg protein. […]

[3] = biological target: T3, OAT1 (Homo sapiens, UniProt Q4U2R8); test: Inhibition of tracer uptake in OAT1-expressing cells; details: OAT1, tracer [14C]PAH 1 µM
T3 construct: host or cells: Flp-in-293
T3 sequence (Q4U2R8 1-563): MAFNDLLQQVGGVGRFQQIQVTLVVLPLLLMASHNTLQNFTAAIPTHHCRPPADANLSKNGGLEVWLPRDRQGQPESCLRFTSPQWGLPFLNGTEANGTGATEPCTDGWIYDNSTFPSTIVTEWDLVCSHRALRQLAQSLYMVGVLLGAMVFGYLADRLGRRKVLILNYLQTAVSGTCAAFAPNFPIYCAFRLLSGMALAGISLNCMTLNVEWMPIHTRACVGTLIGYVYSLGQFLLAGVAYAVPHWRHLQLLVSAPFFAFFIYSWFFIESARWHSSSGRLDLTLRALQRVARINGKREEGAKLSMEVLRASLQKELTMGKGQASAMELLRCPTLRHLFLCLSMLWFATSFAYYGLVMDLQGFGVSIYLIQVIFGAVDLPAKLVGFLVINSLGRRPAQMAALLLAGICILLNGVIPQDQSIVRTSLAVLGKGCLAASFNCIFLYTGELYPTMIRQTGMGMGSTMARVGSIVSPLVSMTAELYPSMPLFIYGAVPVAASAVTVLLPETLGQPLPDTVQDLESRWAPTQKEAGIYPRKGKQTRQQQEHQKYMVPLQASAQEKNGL
Description: as §1, §2

T1 sequence (P08183 whole entry): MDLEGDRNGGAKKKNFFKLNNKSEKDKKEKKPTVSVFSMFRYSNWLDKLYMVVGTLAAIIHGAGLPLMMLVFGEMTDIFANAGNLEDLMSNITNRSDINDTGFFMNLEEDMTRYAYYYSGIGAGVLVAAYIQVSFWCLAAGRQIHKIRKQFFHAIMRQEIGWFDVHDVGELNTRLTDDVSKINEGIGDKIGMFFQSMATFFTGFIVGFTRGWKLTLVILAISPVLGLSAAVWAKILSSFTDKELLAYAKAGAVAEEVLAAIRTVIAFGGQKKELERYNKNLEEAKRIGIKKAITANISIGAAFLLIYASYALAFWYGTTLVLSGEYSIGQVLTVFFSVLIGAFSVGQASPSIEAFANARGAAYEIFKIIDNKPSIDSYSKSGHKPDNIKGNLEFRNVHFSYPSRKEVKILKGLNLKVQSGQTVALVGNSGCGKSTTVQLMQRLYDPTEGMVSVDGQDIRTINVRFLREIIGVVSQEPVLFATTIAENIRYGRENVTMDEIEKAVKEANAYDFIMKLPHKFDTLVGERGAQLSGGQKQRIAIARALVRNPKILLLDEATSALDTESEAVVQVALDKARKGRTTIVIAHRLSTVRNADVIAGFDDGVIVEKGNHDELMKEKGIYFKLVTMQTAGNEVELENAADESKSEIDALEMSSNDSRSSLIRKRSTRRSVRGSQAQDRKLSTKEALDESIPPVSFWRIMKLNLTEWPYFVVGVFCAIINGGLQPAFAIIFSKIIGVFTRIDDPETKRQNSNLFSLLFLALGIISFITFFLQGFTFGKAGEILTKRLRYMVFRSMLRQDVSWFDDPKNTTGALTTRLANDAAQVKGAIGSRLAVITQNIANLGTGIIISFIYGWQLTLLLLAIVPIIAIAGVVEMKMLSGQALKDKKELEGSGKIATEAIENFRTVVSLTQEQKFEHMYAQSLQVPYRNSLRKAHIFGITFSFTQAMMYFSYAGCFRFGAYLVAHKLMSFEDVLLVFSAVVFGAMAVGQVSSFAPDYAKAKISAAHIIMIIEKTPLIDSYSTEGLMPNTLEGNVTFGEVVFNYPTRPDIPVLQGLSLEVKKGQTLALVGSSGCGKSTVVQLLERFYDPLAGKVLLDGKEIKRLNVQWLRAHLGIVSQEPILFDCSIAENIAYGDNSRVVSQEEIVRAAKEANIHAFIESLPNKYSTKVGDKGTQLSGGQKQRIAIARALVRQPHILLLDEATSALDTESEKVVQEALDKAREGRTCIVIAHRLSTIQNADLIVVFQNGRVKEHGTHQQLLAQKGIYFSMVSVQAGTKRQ

SMILES | uptake compared with control vesicles [1] | drug transporter-mediated uptake [2] | IC50 [3]
N[14C]1(C(=O)O)CC(F)C1 (stereo not drawn) [[^14C]fluciclovine, trans-1-amino-3-fluoro[1-^14C]cyclobutanecarboxylic acid] | no significant difference | negligible | 
N[C@]1(C(=O)O)C[C@@H](F)C1 [fluciclovine] |  |  | 3.98 ± 1.77 mM
